The text below walks through data of paper PMC11637378, “Optogenetic screening of MCT1 activity implicates a cluster of non-steroidal anti-inflammatory drugs (NSAIDs) as inhibitors of lactate transport” (PLOS ONE, 2024).

One data set relates to parent strain (SAWy518). Kind of data set: microbe, parasite or virus in culture. The arrangement: species or system Saccharomyces cerevisiae SAWy518; Off-target growth counter-screen, OD600 as per cent of untreated wells, strain lacking MCT1. To be noted: 18.5 h; sheet Primary Screen - final;; off-target growth of parent strain, about 18 h. How it is done:
Cells were grown for 18 hours prior to OD measurement. Fill represents manual compound grouping based on compound class or target. OD600 is reported in Tecan units. […] The drug library used in this study for the initial screen and rescreen was provided by the Small Molecule Screening Center at Princeton University, through a collaboration with Dr. Hahn Kim. […] Follow-up analysis (IC50 determinations) on library compounds was performed using compounds purchased from outside sources. […] Stocks were then diluted 100-fold into media containing 0.01 OD600 inoculation of yeast, to achieve the final concentrations listed. Where compounds were added manually (for example 10 μM AZD3965 addition) stock concentrations were diluted by a factor of 100-fold regardless of scale, resulting in a final concentration of 1% v/v DMSO which is well tolerated by yeast.
For the molecule `O=c1c(O)c(-c2ccc(O)c(O)c2)oc2cc(O)cc(O)c12` [Quercetin], the viability at 10 µM is 96.1%.
Still for that read-out and setting: to `O=C(O)Cc1ccccc1Nc1c(Cl)cccc1Cl` [Diclofenac] belongs 101%; to `CS(=O)(=O)c1ccc(C2=C(c3ccccc3)C(=O)OC2)cc1` [Rofecoxib], 104%; to `CC(Cc1ccc(O)c(O)c1)C(C)Cc1ccc(O)c(O)c1` (centres unmarked) [Nordihydroguaiaretic_acid], 101%.
Still for that read-out and setting: for `C=CC(C1=CC(=O)C(OC)=CC1=O)c1ccc(O)cc1` (centres unmarked) [DALBERGIONE, 4-METHOXY-4'-HYDROXY-] the value was 102%; for `CN1C(C(=O)Nc2ccccn2)=C(O)c2ccccc2S1(=O)=O` [Piroxicam], 95.2%.
Still for that read-out and setting: for `COCCN1C2=C(C(=O)c3ccccc3C2=O)N(Cc2cnccn2)C1C` (centres unmarked) [YM155] the value was 104%.
Consider `O=C1CC(c2ccc(O)cc2)Oc2ccccc21` (centres unmarked), for which the viability at 10 µM turned out to be 90.8%.
In the case of `CCCc1c(-c2ccc(O)cc2)nn(-c2ccc(O)cc2)c1-c1ccc(O)cc1`, the viability at 10 µM stood at 99%.

The test system of a further data set is parent strain (SAWy518).
Assay: not given
Details: not given
For `Nc1[nH]c(=O)ncc1F` [FLUCYTOSINE], the Offscreen_18hr was 0.7196, the Offscreen_24hr was 0.8771 and the Offscreen_42hr was determined as 0.9452.
For `CCCCCCCCc1ccc(CCC(N)(CO)CO)cc1.Cl` [Fingolimod (FTY720)] the same measures were 0.0535, 0.0624 and 0.7799.
The like results for `CC[N+](CC)(CC)CCOc1ccc(/C=C/c2ccccc2)cc1` [MG 624] were, in that order, 0.5585, 0.7684 and 0.9127.
The like results for `N#Cc1ccc(Oc2ccc3c(c2)COB3O)cc1` [Crisaborole] were, in that order, 0.594, 0.7965 and 0.9431.
As for `CC(C)Cn1c(=O)n(C)c(=O)c2[nH]cnc21` [3-Isobutyl-1-methylxanthine, reference compound], the Offtarget result was “NO” and the Offtarget_sub stood at 0.4308.
Consider `COc1cc(C)c2c(=O)c(-c3ccccc3)coc2c1` [METHOXYVONE], for which the Offscreen_18hr was found to be 0.7685, the Offscreen_24hr is 0.8867 and the Offscreen_42hr was found to be 0.9442.
`Cl.O=S(=O)(c1cccc2c(I)cccc12)N1CCCNCC1` [ML-7, reference compound]: the Offtarget result was “NO” and the Offtarget_sub amounted to 0.3788.
On to `CCC[C@H](NC(=O)/C(C#N)=C/c1cccc(Br)n1)c1ccccc1` [WP1130], for which the Offscreen_18hr came to 0.6544, the Offscreen_24hr is 0.8363 and the Offscreen_42hr stood at 0.9253.
As to `O=C([O-])c1ccccc1-c1c2cc(I)c(=O)c(I)c-2oc2c(I)c([O-])c(I)cc12.[Na+].[Na+]` [ERYTHROSINE SODIUM], the Offscreen_18hr stood at 0.8136, the Offscreen_24hr is on record as 0.8985 and the Offscreen_42hr worked out at 0.9466.
As for `Oc1ccc(Nc2nc(-c3ccc(Cl)cc3)cs2)cc1` [SKI II], the Offscreen_18hr is on record as 0.4105, the Offscreen_24hr was determined as 0.6287 and the Offscreen_42hr is 0.8658.
The like results for `CCc1oc2ccccc2c1C(=O)c1cc(Br)c(O)c(Br)c1` [BENZBROMARONE] were, in that order, 0.5194, 0.7137 and 0.8516.
The like results for `Cc1ccc(S(=O)(=O)/C=C/C#N)cc1` [BAY 11-7082 (BAY 11-7821)] were, in that order, 0.151, 0.3413 and 0.9249.
`O=C(/C=C/c1ccc(O)cc1)c1ccccc1` [4-hydroxychalcone, reference compound]: the OffScreen_percentage was 103.693 percentage, the Offscreen_18hr amounted to 0.8368, the Offscreen_24hr came to 0.9201 and the Offscreen_42hr is 0.9804. Moreover, the Read_percentage was found to be 103.693 percentage.
Take `CCC(C)n1ncn(-c2ccc(N3CCN(c4ccc(OC[C@H]5CO[C@](Cn6cncn6)(c6ccc(Cl)cc6Cl)O5)cc4)CC3)cc2)c1=O.Cl.Cl` (some centres unmarked) [ITRACONAZOLE HYDROCHLORIDE]: the Offscreen_18hr is recorded as 0.8063, the Offscreen_24hr is 0.8859 and the Offscreen_42hr turned out to be 0.9404.
For `Cc1c(N)nc([C@H](CC(N)=O)NC[C@@H](N)C(N)=O)nc1C(=O)N[C@H](C(=O)N[C@@H](C)[C@H](O)[C@@H](C)C(=O)N[C@@H](C(=O)NCCc1nc(-c2nc(C(=O)NCCC[S+](C)C)cs2)cs1)[C@@H](C)O)C(O[C@H]1O[C@H](CO)[C@H](O)[C@@H](O)[C@H]1O[C@H]1O[C@H](CO)[C@@H](O)[C@H](OC(N)=O)[C@@H]1O)c1c[nH]cn1.O=S(=O)([O-])O` (some centres unmarked) [Bleomycin sulfate] the same measures were 0.261, 0.4579 and 0.8554.
With `CCCCCCc1ccc(O)cc1O` [HEXYLRESORCINOL], the Offscreen_18hr is listed as 0.6446, the Offscreen_24hr amounted to 0.822 and the Offscreen_42hr was 0.8874.
In the case of `COc1c(C)c2c(c(O)c1C/C=C(\C)CCC(=O)O)C(=O)OC2` [MYCOPHENOLIC ACID], the Offscreen_18hr amounted to 0.6454, the Offscreen_24hr was 0.8395 and the Offscreen_42hr was 0.9254.
As for `CSc1nc2cc(Cl)c(Oc3cccc(Cl)c3Cl)cc2[nH]1` [TRICLABENDAZOLE], the Offscreen_18hr is listed as 0.3546, the Offscreen_24hr stood at 0.5896 and the Offscreen_42hr was 0.8341.
The like results for `COc1c(C)c2c(c(O)c1C/C=C(\C)CCC(=O)OCCN1CCOCC1)C(=O)OC2` [MYCOPHENOLATE MOFETIL] were, in that order, 0.5798, 0.792 and 0.9179.
Regarding `C=CC(C1=CC(=O)C(OC)=CC1=O)c1ccc(O)cc1` (centres unmarked) [Dalbergione,4-methoxy-4-hydroxy-], the OffScreen_percentage stood at 102.367 percentage, the Offscreen_18hr is 0.8261, the Offscreen_24hr is 0.9183 and the Offscreen_42hr was 0.9703. For the same molecule, the Read_percentage is given as 102.367 percentage.
Take `CC(C)(C)C(=O)C(Oc1ccc(Cl)cc1)n1cncn1` (centres unmarked) [TRIADIMEFON]: the Offscreen_18hr was found to be 0.0626, the Offscreen_24hr was 0.0684 and the Offscreen_42hr turned out to be 0.2136.
For `CO[C@H]1C[C@@H]2CC[C@@H](C)[C@@](O)(O2)C(=O)C(=O)N2CCCC[C@H]2C(=O)O[C@H]([C@H](C)C[C@@H]2CC[C@@H](O)[C@H](OC)C2)CC(=O)[C@H](C)/C=C(\C)[C@@H](O)[C@@H](OC)C(=O)[C@H](C)C[C@H](C)/C=C/C=C/C=C/1C` [SIROLIMUS] the same measures were 0.341, 0.5452 and 0.8609.
For `CC[C@H](C(=O)[C@H](C)[C@@H](O)[C@@H](C)[C@@H]1O[C@@H]([C@@H](CC)C(=O)O)CC[C@H]1C)[C@H]1O[C@]2(C=C[C@@H](O)[C@]3(CC[C@@](C)([C@H]4CC[C@](O)(CC)[C@H](C)O4)O3)O2)[C@H](C)C[C@H]1C` [Salinomycin (Procoxacin)], the Offscreen_18hr was found to be 0.8013, the Offscreen_24hr was found to be 0.892 and the Offscreen_42hr is 0.9461.
